Reference: patent US8323708B2, “Poultry meat and eggs comprising beneficial fatty acids” (Monsanto Technology LLC, priority 2009, dated 2012)

Experiment: Laying hen study: long chain fatty acid composition of eggs
Type: in vivo, laying hens
Description: A study was conducted to determine whether laying hens fed a diet enriched in stearidonic acid could produce eggs with elevated levels of beneficial omega-3 fatty acids including EPA and DHA. Mature laying hens […] were randomly allotted to seven dietary treatments (16 hens/treatment) and were fed diets containing the following levels of n-3 fatty acids as described in Table 28 for four weeks. Sixteen birds were given each treatment. Four birds were randomly selected out of the 16 per treatment to obtain eggs during week 4 for fatty acid composition. […] The laying hens had ad libitum access to feed and water. The composition of the diets (Table 29) and premixes (Table 30) are provided below. To help prevent oxidation of the fatty acids, 0.05% ethoxyquin (Rendox) was added to each premix. Premixes were manufactured within 3 days of arrival of ethyl esters. To limit the oxidation associated with storage, diets were manufactured once and stored in a refrigerated cooler at 4° C. during the duration of the study. Eggs collected during […] (days 22-28) were maintained under refrigerated conditions until all eggs for that week were collected. Eggs were sorted by hen and treatment. Two eggs per hen from 4 hens per treatment were taken. The two eggs were weighed individually, cracked and the shell weighed. The difference between fresh egg and shell represented liquid egg weight and served as the basis for further calculations. The liquid fraction from each of the two eggs per hen were combined in a sample cup and homogenized. Samples were analyzed for fatty acids by gas chromatography.

Row | Compound | ALA (C18:3n-3) (total egg, 0.932% of diet) | DHA (C22:6n-3) (total egg, 0.932% of diet) | DPA (C22:5 n-3) (total egg, 0.932% of diet) | EPA (C20:5n-3) (total egg, 0.932% of diet) | Omega 6/Omega 3 ratio (total egg, 0.932% of diet) | Total omega 3's (total egg, 0.932% of diet) | ALA (C18:3n-3) (total egg, 1.864% of diet) | DHA (C22:6n-3) (total egg, 1.864% of diet) | DPA (C22:5 n-3) (total egg, 1.864% of diet) | EPA (C20:5n-3) (total egg, 1.864% of diet) | Omega 6/Omega 3 ratio (total egg, 1.864% of diet) | SDA (C18:4n-3) (total egg, 1.864% of diet) | Total omega 3's (total egg, 1.864% of diet) | accumulation of SDA or DPA in eggs (dietary enrichment of laying hens)
1 | CC/C=C\C/C=C\C/C=C\CCCCCCCC(=O)OCC [ALA Ethyl Ester] | 267.5 mg/100 g | 132.5 mg/100 g | 22.5 mg/100 g | 7.5 mg/100 g | 2.9 | 430 mg/100 g | 622.5 mg/100 g | 155 mg/100 g | 32.5 mg/100 g | 12.5 mg/100 g | 1.5 | 2.5 mg/100 g | 825 mg/100 g | 
2 | CC/C=C\C/C=C\C/C=C\CCCCCCCC(=O)OCC [ALA, alpha-Linolenic Acid - Ethyl Esters] |  |  |  |  |  |  |  |  |  |  |  |  |  | no significant accumulation
